According to patent publication US9522124B2, “Methods for treating Alzheimer's disease” (Wisconsin Alumni Research Foundation, priority 2011, dated 2016):

Columns and labels:
[1] = system: APP695/swe mice; assay: Long-term potentiation in hippocampal brain slices of treated mice; type: in vivo, mouse; settings: 50 mg/kg/day in diet, 4 months
Method: FIG. 15. Compound 9 prevents synaptic deficits in APP695/swe mice. Non-Transgenic (Non-Tg) and APP695/swe mice were fed a diet containing 50 mg/kg/day of compound 9 for 4 months prior to synaptic assessment. Compound 9 prevented the severe deficits of the late component of long term potentiation (LTP) that characterizes the APP695/swe phenotype (A). […] Field excitatory postsynaptic potential (fEPSP) as percent of baseline (100) is shown as a function of time. Calibration: 1 mV, 1 ms. All values are mean±SEM. *P<0.0001.
In order to assess disease-relevant functions, we performed a pilot study with APP695/swe mice, a commonly-used mouse model of AD. APP695/swe mice express a modified mouse APP cDNA encoding the 695-amino acid isoform with a “humanized” Aβ domain that includes the familial AD-associated Swedish double mutation. APP695/swe mice develop synaptic deficits at 3-5 months of age, well before any sign of neurodegeneration can be observed. The cognitive deficits as well as the amyloid plaques can be detected only later, at approximately 12-18 months of age (reviewed in Duyckaerts, et al., 2008).
A group of non-transgenic and APP695/swe mice were fed a diet containing 50 mg/kg/day of compound 9. Treatment started at weaning (˜6 weeks of age) and lasted 4 months. […]

[2] = system: ATase1 and ATase2; assay: Western blot assessment of endogenous ATase1/ATase2 levels in H4 cells; type: cell-based, human; settings: 48 hours
Method: FIG. 4. Compound 9 causes degradation of the ATases. (A) H4 cells were treated with the indicated compounds (10 μM) for 48 hours prior to Western blot assessment of BACE1 and ATase1/ATase2 levels in total cell lysates. (B, D and E) Quantification of changes are expressed as percent of control (no treatment) and are the average (n=3)±S.D.*, P<0.05; **, P<0.005; ^#, P<0.0005. (C) ELISA determination of secreted Aβ in the conditioned media of the experiment described in (A). Results are expressed as percent of control (no treatment) and are the average (n=3)±S.D.*, P<0.05; **, P<0.005. (F) CHO cells over-expressing either ATase1 or ATase2 were treated with compound 9 (10 μM) for 48 hours prior to Western blot assessment of ATase1 and ATase2 levels in total cell lysates.
FIG. 13. Compound 9 decreases the levels of both ATase1 and ATase2. (A) H4 cells were treated with the increasing concentrations of compound 9 for 48 hours prior to Western blot assessment of BACE1 and ATase1/ATase2 levels in total cell lysates. (B-D) Quantification of changes are expressed as percent of control (no treatment) and are the average (n=3)±S.D.*, P<0.05; **, P<0.005; ^#, P<0.0005.
Western blotting was performed on a 4-12% Bis-Tris SDS-PAGE system (NuPAGE; Invitrogen, Carlsbad, Calif., USA) as described previously (Costantini et al., 2006; Jonas et al., 2008; Jonas et al., 2010; Ko and Puglielli, 2007; Ko and Puglielli, 2009; Pehar et al., 2010). The following antibodies were used in this study: anti-acetylated lysine (monoclonal; cat. no. ab409; Abcam, Cambridge, Mass., USA); anti-BACE1 (polyclonal; cat. no. ab2077; Abcam); anti-Myc (monoclonal; cat. no. sc-40; santa cruz, Santa Cruz, Calif., USA); anti-ATases/NAT8 (polyclonal; cat. no. AP4957c; Abgent, San Diego, Calif., USA); anti-actin (monoclonal; cat. no. A1978; Sigma, St Louis, Mo., USA); anti-C99 (monoclonal; cat. no. M066-3; MBL, Woburn, Mass., USA); anti-acetylated H3 (polyclonal; cat. no. 06-599, Millipore, Billerica, Mass.); anti-acetylated H4 (polyclonal; cat. no. 06-866, Millipore, Billerica, Mass.); anti-αPCNA (polyclonal; cat. no. […]

[3] = system: histone acetyltransferase p300/CBP; assay: In vitro activity of histone acetyltransferase p300/CBP; type: biochemical; settings: data not shown
[4] = system: Aβ; assay: ELISA determination of secreted Aβ in conditioned media of H4 cells; type: cell-based, human; settings: 10 μM, 48 hours
Method: For Aβ determinations in the conditioned media, H4 cells were plated in 6-well Petri dishes. When 80-90% confluent, cells were washed in PBS and incubated in 1 ml of fresh medium for 48 hr. Secreted Aβ was determined by standard sandwich ELISA as described before (Costantini et al., 2007; Costantini et al., 2006; Jonas et al., 2008; Jonas et al., 2010; Ko and Puglielli, 2009; Pehar et al., 2010). For each sample, the levels of Aβ40, Aβ42, and Aβtotal were quantified as triplicate based upon standard curves run (on every ELISA plate) and then expressed as pmol Aβ/mg of protein. Aβ42 was constantly found to be ˜25% of total Aβ values.

[5] = BBB permeability: mass spectrometry of CSF of treated wild-type mice; type: in vivo, mouse; settings: 50 mg/kg/day in diet, 1 week
Method: FIGS. 14. (A), (B) and (C) Compound 9 is able to cross the BBB. Wild-type mice (n=5) were fed a diet containing 50 mg/kg/day of compound 9 for one week and then sacrificed. Control animals (n=5) received placebo-containing pellets. CSF was collected and analyzed by mass spectrometry (MS) to detect compound 9. The pick corresponding to compound 9 is indicated. […] Because of the strong hydrophobic properties of the compound, elution was in 100% methanol. Under these conditions most of compound 9 was found protonated and complexed as follows: 1 molecule of compound 9 (protonated):3 molecules of water (1 protonated):1 molecule of methanol. The total mass of the eluted complex was 369.4. This complex is only generated when adding methanol during the elution process for the MS. Compound 9 was never observed in control animals.
To assess BBB permeability properties, a group of 5 wild-type mice received 50 mg/kg/day of compound 9 for 1 week. Animals were then sacrificed and CSF collected for biochemical analysis. Treatment was limited to 1 week because this length of time is usually sufficient to reach equilibrium in biological fluids (Ito, et al., 1998; Singh, 2006; Houston and Galetin, 2008). Concentration and duration of the treatment was based on previous studies with drug-like compounds having similar mass and solubility properties (Ito, et al., 1998; Singh, 2006; Houston and Galetin, 2008).

O=c1c(Cl)c2oc3ccccc3nc-2c2ccccc12 [Compound 9]
defect in late component of long-term potentiation (LTP) ([1]; APP695/swe mice): drastically prevented | effect on LTP in non-transgenic mice ([1]; non-transgenic mice): no effect was observed | endogenous levels of ATase1 and ATase2 ([2]; 10 μM): significantly down-regulate | levels of the ATases with increasing concentrations ([2]; increasing concentrations): dose-dependent decrease | inhibition of in vitro activity of p300/CBP [3]: neither compound inhibited | levels of Aβ in the conditioned media / generation of Aβ [4]: decreased levels of Aβ | detection in CSF (crosses blood brain barrier) [5]: detect compound 9 in all treated animals
